Test systems include NCI/ADR-RES ovarian; OVCAR-3 ovarian; MDA-MB-231 breast; CCRF-CEM leukemia; ACHN renal; BT-549 breast; UACC-257 melanoma; A549 NSCLC; K-562 leukemia; SK-MEL-28 melanoma.
Experiment in all cases: growth of human tumour cells (NCI), 48 h

Values joined by “and” are separate entries in the source; they are usually repeats but may differ in a detail not shown here. Equal entries are not always repeated.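 A five-concentration, 48-hour dose response in 96-well plates underlies each endpoint, interpolated linearly between surrounding concentrations. GI50 marks 50% less growth. TGI denotes the concentration required for complete inhibition of growth.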

Turning to `Fc1ccc(Nc2nc3nonc3nc2Nc2ccc(I)cc2)cc1`, the GI50 in the assay with NCI/ADR-RES ovarian is 272 nM; with OVCAR-3 ovarian it was 319 nM; in the assay with MDA-MB-231 breast, 310 nM; with CCRF-CEM leukemia it was 220 nM; in the assay on ACHN renal, 171 nM; with BT-549 breast it was 266 nM. The GI50 in the assay on UACC-257 melanoma was 207 nM; in the assay with A549 NSCLC it was 313 nM; in the assay with K-562 leukemia, 181 nM; with SK-MEL-28 melanoma, 340 nM. Also, the TGI in the assay with NCI/ADR-RES ovarian was 1.95 µM; with OVCAR-3 ovarian, 14.1 µM; in the assay with MDA-MB-231 breast, 1.72 µM; in the assay on CCRF-CEM leukemia, 4.47 µM; in the assay on ACHN renal it was 3.43 µM; in the assay on BT-549 breast it was 2.02 µM. In addition, the TGI in the assay on UACC-257 melanoma turned out to be 0.756 µM; in the assay on A549 NSCLC, 11.2 µM; with K-562 leukemia it was 11 µM; in the assay with SK-MEL-28 melanoma it was 4.63 µM.

Turning to `COC(=O)[C@]12CC[C@@H](C)[C@H](C)[C@@H]1C1=CC[C@@H]3[C@@](C)(CC#N)C4=C(C[C@@]3(C)[C@]1(C)CC2)OC[C@]4(C)C=O`, the GI50 is 4260 nM in the assay on NCI/ADR-RES ovarian; 3410 nM in the assay on OVCAR-3 ovarian; 3340 nM in the assay with MDA-MB-231 breast; 3490 nM with CCRF-CEM leukemia; 6420 nM with ACHN renal; 4080 nM with BT-549 breast. Moreover, the GI50 in the assay on UACC-257 melanoma is 3730 nM; in the assay on A549 NSCLC, 10200 nM; in the assay on K-562 leukemia it was 3220 nM; with SK-MEL-28 melanoma it was 4110 nM. Further, the TGI in the assay with NCI/ADR-RES ovarian is 38.9 µM; in the assay on OVCAR-3 ovarian, 12.2 µM; in the assay with MDA-MB-231 breast, 18.5 µM; with CCRF-CEM leukemia, 16.9 µM; in the assay with ACHN renal it was over 100 µM; in the assay with BT-549 breast it was 32.9 µM. The TGI with UACC-257 melanoma was 18.3 µM; in the assay with A549 NSCLC it was 25 µM; in the assay on K-562 leukemia it was over 100 µM; with SK-MEL-28 melanoma, 21.3 µM.

With `CCCCOC(=O)c1c(C)[nH]c(/C=C2\N=C(c3ccc[nH]3)C=C2OC)c1C`, the GI50 in the assay with NCI/ADR-RES ovarian was 121 nM; with OVCAR-3 ovarian, 151 nM; in the assay with MDA-MB-231 breast, 56 nM; in the assay with CCRF-CEM leukemia, 58.3 nM; with ACHN renal, 146 nM; with BT-549 breast, 650 nM. For the same compound, the GI50 in the assay on UACC-257 melanoma was 488 nM; in the assay on A549 NSCLC, 205 nM; in the assay on K-562 leukemia, 155 nM; in the assay with SK-MEL-28 melanoma, 509 nM. Besides, the TGI in the assay with NCI/ADR-RES ovarian was 2.92 µM; in the assay with OVCAR-3 ovarian it was 1.17 µM; with MDA-MB-231 breast, 0.764 µM; in the assay on CCRF-CEM leukemia, over 20.4 µM; in the assay with ACHN renal, 1.3 µM; with BT-549 breast, 12.1 µM. The TGI in the assay on UACC-257 melanoma was 3.35 µM; with A549 NSCLC, 15.2 µM; in the assay on K-562 leukemia, 8.61 µM; in the assay on SK-MEL-28 melanoma, 2.8 µM.

In the case of `CC(=O)N[C@@H](Cc1ccc(OP(=O)(O)O)cc1)C(=O)N[C@H]1CCC(=O)N2CCC[C@@H](C(=O)NC3CCc4ccccc43)N2C1=O` (stereo partly drawn), the GI50 with NCI/ADR-RES ovarian, with OVCAR-3 ovarian, in the assay with MDA-MB-231 breast, in the assay on CCRF-CEM leukemia, with ACHN renal and in the assay with BT-549 breast was over 25000 nM in each case. In addition, the GI50 in the assay on UACC-257 melanoma, in the assay on A549 NSCLC, in the assay on K-562 leukemia and in the assay with SK-MEL-28 melanoma was over 25000 nM throughout. Also, the TGI with NCI/ADR-RES ovarian, with OVCAR-3 ovarian, with MDA-MB-231 breast, in the assay on CCRF-CEM leukemia, in the assay with ACHN renal and in the assay with BT-549 breast was over 25 µM in each case. Also, the TGI in the assay on UACC-257 melanoma, in the assay with A549 NSCLC, in the assay on K-562 leukemia and in the assay with SK-MEL-28 melanoma was over 25 µM in each case.

Consider `Cc1cnc(-c2ccc(-c3ccc(NC(=O)Nc4c(F)cc(F)cc4F)cc3F)c3c2C(=O)NC3)[nH]1`, for which the GI50 in the assay on NCI/ADR-RES ovarian was over 100000 nM; in the assay on OVCAR-3 ovarian it was 1380 nM and 1510 nM; with MDA-MB-231 breast it was 1590 nM and 2510 nM; in the assay with ACHN renal, 2550 nM and 1350 nM; in the assay with BT-549 breast, 1190 nM and 1690 nM; with UACC-257 melanoma, 333 nM and 970 nM. For the same compound, the GI50 in the assay on A549 NSCLC was 1290 nM and 1110 nM; with K-562 leukemia, 329 nM and 660 nM; with SK-MEL-28 melanoma it was 1160 nM and 642 nM. Besides, the TGI in the assay with NCI/ADR-RES ovarian was over 100 µM; in the assay with OVCAR-3 ovarian it was 2.82 µM and 3.02 µM; with MDA-MB-231 breast, 8.16 µM and 11.3 µM; in the assay on CCRF-CEM leukemia it was over 100 µM; with ACHN renal, > 100 µM and 28.6 µM; in the assay on BT-549 breast, 19.2 µM and 16.1 µM. Moreover, the TGI with UACC-257 melanoma is 10.2 µM and 14.5 µM; in the assay with A549 NSCLC it was 8.23 µM and 10.8 µM; in the assay with K-562 leukemia it was 2.96 µM and 11.5 µM; in the assay with SK-MEL-28 melanoma, 9.69 µM and 5.48 µM.

For the compound `COCCn1c2c([n+](Cc3cnccn3)c1C)C(=O)c1ccccc1C2=O`, the TGI with NCI/ADR-RES ovarian is over 100 µM; in the assay with OVCAR-3 ovarian it was under 0.01 µM; in the assay with MDA-MB-231 breast it was 0.013 µM; with CCRF-CEM leukemia, 0.345 µM; in the assay with ACHN renal it was 2.11 µM; in the assay with BT-549 breast, 0.0876 µM. Besides, the TGI is under 0.01 µM with UACC-257 melanoma, 0.0434 µM with A549 NSCLC, 5.6 µM in the assay on K-562 leukemia and 0.0419 µM in the assay with SK-MEL-28 melanoma. The GI50 was under 10 nM with OVCAR-3 ovarian; under 10 nM in the assay on MDA-MB-231 breast; 20.7 nM with CCRF-CEM leukemia; 40 nM with ACHN renal; 26.4 nM with BT-549 breast; under 10 nM in the assay with UACC-257 melanoma. Moreover, the GI50 in the assay with A549 NSCLC was 16.6 nM; with K-562 leukemia, under 10 nM; in the assay with SK-MEL-28 melanoma it was 16.4 nM.

Take `O=C(/C=C/C=C/c1ccc2c(c1)OCO2)N/N=C\c1ccc(O)cc1O`: the GI50 in the assay on NCI/ADR-RES ovarian was 1290 nM; in the assay on OVCAR-3 ovarian, 345 nM; in the assay on MDA-MB-231 breast, 3490 nM; with CCRF-CEM leukemia, 559 nM; in the assay with ACHN renal it was 1990 nM; in the assay on BT-549 breast, 2250 nM. Moreover, the GI50 is 3060 nM in the assay with UACC-257 melanoma, 2930 nM with A549 NSCLC, 2830 nM in the assay with K-562 leukemia and 2970 nM with SK-MEL-28 melanoma. The TGI with NCI/ADR-RES ovarian turned out to be 7.6 µM; with OVCAR-3 ovarian it was 12.8 µM; in the assay on MDA-MB-231 breast, 19.3 µM; with CCRF-CEM leukemia, 17.9 µM; in the assay with ACHN renal, 13.1 µM; with BT-549 breast it was 7.49 µM. The TGI is 15.9 µM with UACC-257 melanoma, 33.8 µM in the assay on A549 NSCLC, over 100 µM in the assay with K-562 leukemia and 19.6 µM in the assay on SK-MEL-28 melanoma.
